Laboratory results: patent US20150297534A1, “METHODS AND COMPOSITIONS FOR THE MEDIATION OF NSAID-INDUCED REACTIONS” (NuBioPharma, LLC, priority 2014, published 2015)

What was measured:
[1] = test system: PGE2 formation in human whole blood; test: PGE2 formation in LPS-stimulated human whole blood (in vitro incubation); format: cell-based; details: LPS 10 µg/ml, 18 hours; for inhibition of PGE2 formation: alone or in combination; for inhibition of PGE2 compared with 6-keto PGF1α formation (FIG. 1): varied concentrations, compound alone
Description: Determination of PGE2 and 6-keto PGF1α Formation in Human Whole Blood: Peripheral blood from healthy adult volunteers, who had not received any medication for at least 2 weeks under informed consent, was obtained by venipuncture and collected in a vacutainer blood collection tube containing heparin. Aliquots of whole blood (0.8 ml) were mixed with aspirin (50 μM) and volume was adjusted to 1 ml with PBS containing 6 mM glucose. The blood was incubated with the indicated compounds for 5 mins. at room temperature; and then stimulated with lipopolysaccharide (10 μg/ml) for 18 h at 37° C. Prostanoid formation was stopped on ice and the samples were centrifuged (2300 g, 10 min, 4° C.), and 6-keto PGF1α was quantified in the supernatant using High Sensitivity ELISA Kit for 6-keto PGF1α according to the manufacturer's protocols (Calbiochem). PGE2 was determined after solid-phase extraction, RP-HPLC and an ELISA according to the procedures of Koeberle et al. [J Pharmacol Exp Ther. 2008; 326(3):975-82].
Synergistic interaction between compounds was analyzed by the sensitization method (Harvey, R. J., J. Theor. Biol. 74: 411-437, 1978). Briefly, sensitization is measured as the ratio between observed and expected inhibition of PGE2. The expected level of activity (Ae) is calculated by Aβ=1−((1−A1)*(1−A2)) (^3) where A1 and A2 are the activities of drugs 1 and 2 alone at the concentration used in the combination (Harvey, R. J., J. Theor. Biol. 74: 411-437, 1978).

[2] = test system: TNF-α; test: TNF-α in LPS-stimulated human whole blood (in vitro incubation); format: cell-based; details: whole human blood stimulated with LPS (FIG. 4)
Description: (§1) Determination of Inflammatory Cytokines (IL-1β & TNF-α) in Human Whole Blood: Blood from healthy adult volunteers was obtained in vacutainer blood collection tubes containing heparin as described above. Aliquots of whole blood (0.2 ml) were diluted with serum-free medium (RPMI-SF) in 24-well culture plates and volume was adjusted to 1 ml. The blood was incubated with the indicated compounds for 5 minutes at room temperature, and then stimulated with lipopolysaccharide (10 μg/ml) for 6 h at 37° C. with 5% CO2. Reaction was stopped on ice, the samples were centrifuged (2300 g, 10 mins., 4° C.), and of Inflammatory Cytokines IL-1β& TNF-α were estimated in the supernatant using High Sensitivity ELISA Kits according to the manufacturer's protocols (R&D Biosystems).

[3] = test system: IL-1β; test: IL-1β in LPS-stimulated human whole blood (in vitro incubation); format: cell-based; details: whole human blood stimulated with LPS (FIG. 5); read-out: suppression of IL-1 beta, IC50
Description: as §1

[4] = test system: PGE2; test: Healthy volunteer crossover study: PGE2 production in LPS-stimulated blood after oral dosing; format: in vivo, human; details: LPS stimulation
Description: Peripheral blood from healthy adult volunteers, who had not received any medication for at least 2 weeks under informed consent, was obtained by venipuncture and collected in a vacutainer blood collection tube containing heparin. Aliquots of whole blood (0.8 ml) were mixed with aspirin (50 μM) and volume was adjusted to 1 ml with PBS containing 6 mM glucose. The blood was incubated with the indicated compounds for 5 mins. at room temperature; and then stimulated with lipopolysaccharide (10 μg/ml) for 18 h at 37° C. […] PGE2 was determined after solid-phase extraction, RP-HPLC and an ELISA according to the procedures of Koeberle et al. [J Pharmacol Exp Ther. 2008; 326(3):975-82]. Human Healthy Volunteer Clinical Study: Volunteers with acute or chronic diseases, medical history of gastrointestinal ulcers or allergy to NSAIDs were not included. Volunteers were not permitted to receive any NSAIDs for 2 weeks before and throughout the duration of the study. The study was conducted in an open-label, crossover design with a seven-day washout period between each treatment. […] Administration of the study medication was supervised by the investigator to ensure that the drug had been swallowed. […] An aliquot of blood was used for determination of PGE2 and TNF-α after LPS stimulation as described above. […] A Blood sample (6 ml), immediately prior to dosing and at 105 minutes after dosing was obtained as described above. […] A blood sample (6 ml), immediately prior to dosing and at 105 min after dosing was obtained as described above.

[5] = test system: 6-keto PGF1α; test: Healthy volunteer crossover study: 6-keto PGF1α production in LPS-stimulated blood after oral dosing; format: in vivo, human; details: single oral dose, blood 105 min after dosing, LPS stimulation, SE in parentheses
Description: Peripheral blood from healthy adult volunteers, who had not received any medication for at least 2 weeks under informed consent, was obtained by venipuncture and collected in a vacutainer blood collection tube containing heparin. Aliquots of whole blood (0.8 ml) were mixed with aspirin (50 μM) and volume was adjusted to 1 ml with PBS containing 6 mM glucose. The blood was incubated with the indicated compounds for 5 mins. at room temperature; and then stimulated with lipopolysaccharide (10 μg/ml) for 18 h at 37° C. […] PGE2 was determined after solid-phase extraction, RP-HPLC and an ELISA according to the procedures of Koeberle et al. [J Pharmacol Exp Ther. 2008; 326(3):975-82]. […] A Blood sample (6 ml), immediately prior to dosing and at 105 minutes after dosing was obtained as described above. […] A blood sample (6 ml), immediately prior to dosing and at 105 min after dosing was obtained as described above.

[6] = Healthy volunteer study: total plasma concentration of ibuprofen by HPLC; format: in vivo, human; details: SE in parentheses; for concentration at 105 min: plasma
Description: Human Healthy Volunteer Clinical Study: Volunteers with acute or chronic diseases, medical history of gastrointestinal ulcers or allergy to NSAIDs were not included. Volunteers were not permitted to receive any NSAIDs for 2 weeks before and throughout the duration of the study. The study was conducted in an open-label, crossover design with a seven-day washout period between each treatment. Volunteer 1 was given a single oral dose of 400 mg of ibuprofen (Baby Advil Suspension) with 240 mL of water. […] A Blood sample (6 ml), obtained via an indwelling catheter inserted into an arm vein, and was collected into a tube containing heparin immediately prior to an ibuprofen dosing and at the following times thereafter: 65, 105, and 115 mins. after dosing. An aliquot of blood was used for determination of PGE2 and TNF-α after LPS stimulation as described above. Plasma was separated by centrifugation at 1000 g for 10 minutes at room temperature from the remaining blood for ibuprofen assay. After seven days (washout period), the same volunteer was given a single oral dose of 100 mg ibuprofen (Baby Advil Suspension) with 240 mL of water. A 6.0 mL blood sample for the determination of PGE2 and TNF-α after LPS stimulation and for the estimation of plasma levels of ibuprofen were drawn into tubes through an indwelling cannula before dosing and at 75, 125, and 155 mins. after dosing.
Total plasma concentrations of ibuprofen were determined by high-performance liquid chromatography (HPLC.) system that consisted of a Model 510 pump, a Model 486 variable wavelength UV detector and a computer loaded with the Millenium software, all from Waters Associates (Milford, Mas). To 100 μl of plasma was added 100 μl of internal standard solution (naproxen 10 μg/ml in 65% methanol and 1% acetic acid) followed by […]. Following vortex-mixing (30 s) and centrifugation (1000 g, 5 mins.), the supernatant was evaporated to dryness, and reconstituted in 100 μl of 65% methanol and 1% acetic acid immediately prior to injection onto a reversed phase column (ρBondaPak C18) eluted with methanol:1% acetic acid (65:35), pumped at 1.0 ml min. The column eluent was monitored at 210 nm. The height of the ibuprofen peak was divided by the height of the internal standard peak and this ratio was used to determine ibuprofen concentrations from a standard curve of ibuprofen.
A Blood sample (6 ml), immediately prior to dosing and at 105 minutes after dosing was obtained as described above. Production of PGE2, 6-keto PGF1α and TNF-α after LPS stimulation and plasma concentrations were determined as described above.
A blood sample (6 ml), immediately prior to dosing and at 105 min after dosing was obtained as described above. Production of PGE2, 6-keto PGF1α and TNF-α after LPS stimulation and plasma concentrations were determined as described above.

[7] = test system: TNF-α; test: Healthy volunteer study: TNF-α in LPS-stimulated blood after ibuprofen dosing; format: in vivo, human; details: volunteer 1; single oral dose 400 mg ibuprofen; blood 65 minutes after dosing, LPS stimulation (FIG. 3)
Description: as §1
Human Healthy Volunteer Clinical Study: Volunteers with acute or chronic diseases, medical history of gastrointestinal ulcers or allergy to NSAIDs were not included. Volunteers were not permitted to receive any NSAIDs for 2 weeks before and throughout the duration of the study. The study was conducted in an open-label, crossover design with a seven-day washout period between each treatment. Volunteer 1 was given a single oral dose of 400 mg of ibuprofen (Baby Advil Suspension) with 240 mL of water. Administration of the study medication was supervised by the investigator to ensure that the drug had been swallowed. […]

[8] = test system: gastric ulcers; details: ibuprofen 2400 mg/day, daily use for 24 weeks, arthritis patients; cited from earlier work
[9] = curcumin 10 µM, ibuprofen 20 µM
[10] = Human Volunteer 1, single oral dose, ibuprofen 50 mg (curcumin 200 mg, phosphatidylcholine 400 mg where included), 105 min after dosing
[11] = Human Volunteer 2, single oral dose, ibuprofen 40 mg (curcumin 200 mg, phosphatidylcholine 400 mg where included), 105 min after dosing

COc1cc(/C=C/C(=O)CC(=O)/C=C/c2ccc(O)c(OC)c2)ccc1O [Curcumin]
inhibition of PGE2 formation ([1]; curcumin 3 µM, ibuprofen 4 µM): did not inhibit PGE2 formation
inhibition of PGE2 formation [1, 9]: no detectable inhibition
inhibition of PGE2 compared with 6-keto PGF1α formation (FIG. 1) [1]: inhibited PGE2 more potently than 6-keto PGF1α
suppression of ibuprofen-induced stimulation of TNF-α ([2]; curcumin 10 µM co-incubated with ibuprofen 20 µM): suppressed the deleterious stimulation of TNF-α
IC50 [3]: 14 µM

CC(C)Cc1ccc(C(C)C(=O)O)cc1 (stereo not shown) [Ibuprofen]
inhibition of PGE2 formation ([1]; curcumin 3 µM, ibuprofen 4 µM): did not inhibit PGE2 formation
inhibition of PGE2 formation [1, 9]: 38%
inhibition of PGE2 compared with 6-keto PGF1α formation (FIG. 1) [1]: inhibited the formation of both the prostanoids PGE2 and 6-keto PGF1α, to about the same extent
stimulation of TNF-α ([2]; ibuprofen 20 µM and 100 µM alone): dose-dependent stimulation of TNF-α
PGE2 (% inhibition) ([4]; Human Volunteer 1, single oral dose ibuprofen 100 mg, SE in parentheses): 71 % inhibition
PGE2 (% inhibition) ([4]; Human Volunteer 1, single oral dose ibuprofen 400 mg, SE in parentheses): 88 (2) % inhibition
PGE2 (% inhibition) ([4]; Human Volunteer 1, single oral dose ibuprofen 400 mg, SE in parentheses, listed as ibuprofen): about 90 % inhibition
PGE2 (% inhibition) ([4]; Human Volunteer 1, single oral dose, ibuprofen 50 mg (curcumin 200 mg, phosphatidylcholine 400 mg where included), blood 105 min after dosing, SE of 3 measurements in parentheses): 56 (3) % inhibition
PGE2 (% inhibition) ([4]; Human Volunteer 2, single oral dose, ibuprofen 40 mg (curcumin 200 mg, phosphatidylcholine 400 mg where included), blood 105 min after dosing, SE in parentheses): 29 % inhibition
6-keto PGF1α (% inhibition) ([5]; Human Volunteer 1, ibuprofen 50 mg (curcumin 200 mg, phosphatidylcholine 400 mg where included)): 61 (6) % inhibition
6-keto PGF1α (% inhibition) ([5]; Human Volunteer 2, ibuprofen 40 mg (curcumin 200 mg, phosphatidylcholine 400 mg where included)): 35 % inhibition
Plasma ibuprofen (ug/ml) ([6]; Human Volunteer 1, single oral dose ibuprofen 100 mg): 3.0 (0.5) ug/ml
Plasma ibuprofen ([6]; Human Volunteer 1, single oral dose ibuprofen 100 mg, listed as ibuprofen): 3.0 µg/mL
Plasma ibuprofen (ug/ml) ([6]; Human Volunteer 1, single oral dose ibuprofen 400 mg): 44.0 (3.0) ug/ml
Plasma ibuprofen (ug/ml) [6, 10]: 1.7 (0.15) ug/ml
Plasma ibuprofen (ug/ml) [6, 11]: 0.42 (0.06) ug/ml
concentration at 105 min [6, 10]: 1700 ng/mL
concentration at 105 min [6, 11]: 420 ng/mL
increase in TNF-α after ibuprofen dosing [7]: 3.5 fold
incidence of gastric ulcers [8]: 22.9%
